Where two headings read alike, the source gives them in different places. Residues, ends and D or L forms follow the SMILES beside them. No end group written: not given here.

Assay [1] deals with Aspergillus flavus. The experiment in a line: Disc plate diffusion assay. It counts as cell-based. As to conditions: purified peptide on filter paper disc. How it is done: Mycelium plugs from actively growing fungal cultures were placed in the center of the petri plate. After incubation at 27° C. to allow vegetative growth, samples were applied on sterile filter paper discs laid on the agar surface. Precipitation with ammonium sulfate. The 7th day culture filtrate was sequentially precipitated with 20, 40, 60 and 80% ammonium sulfate. […] After complete purification of the antifungal peptides as described in example 8, removing salt by purification on a […] cartridge (waters) and freeze drying, both peptides were quantified by weight. […] The antifungal assays are described in example 2.

Assay [2] concerns Aspergillus flavus. It counts as cell-based. On the procedure:
Description of the method for the antifungal assays. […] Each well contained 100 μl Potato Dextrose Agar (PDA, Difco Laboratories) and 100 μl of sample and was inoculated with 500 spores of Aspergillus flavus. Fungal growth was monitored by reading optical density (O.D.) at 560 nm (Dynatech microplate reader). […] After complete purification of the antifungal peptides as described in example 8, removing salt by purification on a […] cartridge (waters) and freeze drying, both peptides were quantified by weight. […] The antifungal assays are described in example 2.

In a further assay the test system is Absydia corymbifera. As to conditions: cited from earlier work.
Assay [3] relates to Aspergillus niger. The note with it: cited from earlier work.
For assay [4], the system named is Candida albicans. The note with it: cited from earlier work.
In assay [5] the test system is Fusarium oxysporum. As to conditions: cited from earlier work.
For assay [6], the system named is Kluyveromyces bulgaris. As to conditions: cited from earlier work.
Another assay has as its system Saccharomyces cerevisae. As to conditions: cited from earlier work.
Assay [7] relates to various yeasts, fungi and phytopathogenic fungi. As to conditions: cited from earlier work.
A further assay relates to bacteria. The note with it: cited from earlier work.
Assay [8] concerns Aspergillus niger. The note with it: cited from earlier work. The source holds these as a separate data set.
The test system of another assay is Botrytis cinerea. As to conditions: cited from earlier work.
Assay [9] deals with Fusarium oxysporum. As to conditions: cited from earlier work. This is another data set of the same source.
The subject of the next assay is Mycosphaerella pinodes. As to conditions: cited from earlier work.
A further assay concerns Neurospora crassa. As to conditions: cited from earlier work.
The next assay has as its system Penicillium chysogenum. The note with it: cited from earlier work.
In a further assay the test system is Pleospora herbarum. As to conditions: cited from earlier work.
The next assay has as its system Rhodotorula pillimanae. The note with it: cited from earlier work.
A further assay concerns Sclerotina fructigena. As to conditions: cited from earlier work.
For another assay, the system named is Sclerotina sclerotiorum. As to conditions: cited from earlier work.
For the next assay, the system named is Stemphylium radicinum. The note with it: cited from earlier work.
For assay [10], the system named is Trichophyton mentagrophytes. As to conditions: cited from earlier work.
The subject of assay [11] is Candida albicans. The note with it: cited from earlier work. The source holds these as a separate data set.
Another assay has as its system Candida tropicalis. The note with it: cited from earlier work.
The next assay deals with Saccharomyces cerevisiae. The note with it: cited from earlier work.
Another assay deals with Azotobacter vinelandii. As to conditions: cited from earlier work.
The subject of a further assay is Brucella brochiseptica. As to conditions: cited from earlier work.
A further assay relates to Escherichia coli K12. As to conditions: cited from earlier work.
The test system of another assay is Streptomyces albus G. The note with it: cited from earlier work.
A further assay concerns Bacillus cereus. As to conditions: cited from earlier work.
The test system of assay [12] is Micrococcus luteus. The note with it: cited from earlier work.
The next assay deals with Sarcinia lutea. The note with it: cited from earlier work.
For another assay, the system named is Staphylococcus aureus. The note with it: cited from earlier work.
In assay [13] the test system is Cladosporium cladosporioides. The note with it: cited from earlier work.
For assay [14], the system named is Kluyveromyces bulgaris. As to conditions: cited from earlier work. This is another data set of the same source.
The subject of assay [15] is Micrococcus luteus. As to conditions: cited from earlier work. This is another data set of the same source.
Assay [16] deals with Micrococcus luteus protoplast. The note with it: cited from earlier work.
A further assay has as its system Ophiostoma ulmi. The note with it: cited from earlier work.
Another assay has as its system Verticillium dahliae. As to conditions: cited from earlier work.
A further assay concerns Ceratocystis fagacearum. As to conditions: cited from earlier work.
Another assay has as its system Cryphonectria parasitica. The note with it: cited from earlier work.

Take `CCCCCCCCCCCCC[C@@H]1CC(=O)N[C@@H](CC(N)=O)C(=O)N[C@H](Cc2ccc(O)cc2)C(=O)N[C@H](CC(N)=O)C(=O)N2CCC[C@H]2C(=O)N[C@@H](CCC(=O)O)C(=O)N[C@H](CO)C(=O)N[C@@H]([C@@H](C)O)C(=O)N1` [a2] (HELM PEPTIDE1{E.[dS].T.[CCCCCCCCCCCCC[C@H](CC(=O)[*:2])N[*:1]].N.[dY].[dN].P}$PEPTIDE1,PEPTIDE1,1:R1-8:R2$$$V2.0): the “Disc plate diffusion assay Minimal amount to inhibit hyphal growth” value in the assay on Aspergillus flavus [1] was determined as 3 µg. Also, the “Microtiter plate Minimal inhibitory concentration (MIC)” value in the assay with Aspergillus flavus [2] was found to be 130 µM.

Regarding “Bacillomycin D (NYNPEST; also: cyclic lipopeptide with β-amino fatty acid, ring closure not described) [iturin lipopeptide: Asn Tyr Asn Pro Glu Ser Thr with β amino acid n-C14, i-C15, a-C15]”, the Antifungal activity result in the assay on Absydia corymbifera, in the assay with Aspergillus niger [3], with Candida albicans [4], in the assay on Fusarium oxysporum [5], with Kluyveromyces bulgaris [6] and with Saccharomyces cerevisae was “antifungal” each time.

For “Bacillomycin F (NYNQPNT; also: cyclic lipopeptide with β-amino fatty acid, ring closure not described) [iturin lipopeptide: Asn Tyr Asn Gln Pro Asn Thr with β amino acid i-C16, i-C17, a-C17]”, the Antifungal activity entry in assay [7] is “strong antifungal activity”. In addition, the Antibacterial activity entry in the assay on bacteria is on record as “weak antibacterial activity”.

On to Bacillomycin Fa, for which the minimal inhibitory concentration (MIC) (usually the smallest concentration in the dilution series that meets the test's criterion for growth inhibition) was 40 µg/mL with Aspergillus niger [8]; 20 µg/mL in the assay on Botrytis cinerea; more than 320 µg/mL in the assay with Fusarium oxysporum [9]; 10 µg/mL in the assay on Mycosphaerella pinodes; 80 µg/mL in the assay on Neurospora crassa; 20 µg/mL in the assay with Penicillium chysogenum. The MIC was 10 µg/mL with Pleospora herbarum; 80 µg/mL with Rhodotorula pillimanae; 40 µg/mL with Sclerotina fructigena; 50 µg/mL in the assay with Sclerotina sclerotiorum; 320 µg/mL in the assay with Stemphylium radicinum; 20 µg/mL in [10]. The MIC was 40 µg/mL with Candida albicans [11]; 40 µg/mL with Candida tropicalis; 10 µg/mL in the assay with Saccharomyces cerevisiae; more than 400 µg/mL with Azotobacter vinelandii; more than 400 µg/mL in the assay with Brucella brochiseptica; more than 400 µg/mL in the assay on Escherichia coli K12. For the same compound, the MIC in the assay with Streptomyces albus G is more than 400 µg/mL; in the assay with Bacillus cereus, more than 400 µg/mL; with Micrococcus luteus [12], 200 µg/mL; in the assay with Sarcinia lutea, more than 400 µg/mL; in the assay on Staphylococcus aureus it was more than 400 µg/mL.

Turning to Bacillomycin Fb, the MIC was 25 µg/mL in the assay with Aspergillus niger [8]; 25 µg/mL in [13]; more than 200 µg/mL in the assay on Fusarium oxysporum [9]; 100 µg/mL in the assay on Mycosphaerella pinodes; more than 200 µg/mL in the assay on Candida albicans [11]; more than 200 µg/mL in the assay with Candida tropicalis. Also, the MIC was 25 µg/mL in the assay with Saccharomyces cerevisiae and 75 µg/mL with Kluyveromyces bulgaris [14].

In the case of Bacillomycin Fc, the minimum inhibitory concentration (MIC) with Aspergillus niger [8] is 30 µg/mL; in assay [13] it was 40 µg/mL; in the assay on Fusarium oxysporum [9] it was more than 200 µg/mL; in the assay on Mycosphaerella pinodes it was 30 µg/mL; with Candida albicans [11] it was more than 200 µg/mL; with Candida tropicalis, more than 200 µg/mL. Moreover, the values for the MIC with Saccharomyces cerevisiae and in the assay with Kluyveromyces bulgaris [14] were 30 µg/mL and 40 µg/mL, respectively.

For “Bacillomycin L (DYNSQST; also: cyclic lipopeptide with β-amino fatty acid, ring closure not described) [iturin lipopeptide: Asp Tyr Asn Ser Gln Ser Thr with β amino acid n-C14, i-C15, a-C15]”, the “Inhibition of growth of Micrococcus luteus” value (shortened to “Inhibition”) in the assay with Micrococcus luteus [15] is recorded as “inhibited the growth”. The “Lysis of Micrococcus luteus protoplast” value in assay [16] is reported as “no effect”.

For Bacillomycin Lc, the Antifungal activity entry with Ophiostoma ulmi, in the assay on Verticillium dahliae, with Ceratocystis fagacearum and in the assay on Cryphonectria parasitica was “antifungal activity” in each case.

In the case of “Iturin A (NYNQPNS; also: cyclic with β-amino fatty acid, ring closure not described) [cyclic lipopeptide of Bacillus subtilis: Asn Tyr Asn Gln Pro Asn Ser with β amino acid n-C14, i-C15, a-C15]”, the “Disc plate diffusion assay Minimal amount to inhibit hyphal growth” value in the assay on Aspergillus flavus [1] was more than 50 µg. In addition, the “Microtiter plate Minimal inhibitory concentration (MIC)” value in the assay with Aspergillus flavus [2] (Aspergillus flavus, 500 spores per well, O.D. 560 nm) turned out to be 250 µM. In addition, the “Inhibition” value with Micrococcus luteus [15] is given as “inhibited the growth”. Moreover, the “Lysis of Micrococcus luteus protoplast” value in [16] is listed as “able to lyse”.

With “Mycosubtilin (NYNQPSN; also: cyclic lipopeptide with β-amino fatty acid, ring closure not described) [Mycosubtlin, iturin lipopeptide: Asn Tyr Asn Gln Pro Ser Asn with β amino acid i-C16, a-C17]”, in the assay with Micrococcus luteus [15], the “Inhibition” value is reported as “inhibited the growth”. The “Lysis of Micrococcus luteus protoplast” value in assay [16] was “able to lyse”.

Regarding “a1: cyclic lipopeptide from B. subtilis AU195, bacillomycin D family, [M+H] 1045.5, linearised sequence STNYNPE, β-amino fatty acid believed of 15 carbons (not fully specified; also: cyclic lipopeptide, C15 β-amino fatty acid (hydroxy fatty acid at Thr suggested), sequence given after Glu-C linearisation)”, the “Disc plate diffusion assay Minimal amount to inhibit hyphal growth” value with Aspergillus flavus [1] worked out at 15 µg.

The record behind these values is US6183736A, “Small peptides with antipathogenic activity, treated plants and methods for treating same” (USDA/ARS Southern Regional Research Center, priority 1999, dated 2001).
